Results: ChEMBL document CHEMBL4020796, “Evaluation of guggulsterone derivatives as novel kidney cell protective agents against cisplatin-induced nephrotoxicity” (2017)
Active and inactive are the calls of the source. The rule behind the calls is not given here.

Legend:
LLC-PK1 [1] = test: Renoprotective activity in pig LLC-PK1 cells assessed as inhibition of cisplatin-induced oxidative stress by measuring cell viability up to 250 uM after 24 hrs by MTT assay; type: functional, cell-based; conditions: Sus scrofa
LLC-PK1 [2] = test: Renoprotective activity in pig LLC-PK1 cells assessed as inhibition of cisplatin-induced oxidative stress by measuring cell viability at 25 uM after 24 hrs by MTT assay relative to control; type: functional, Sus scrofa
LLC-PK1 [3] = test: Renoprotective activity in pig LLC-PK1 cells assessed as inhibition of cisplatin-induced cytotoxicity by measuring cell viability at 10 to 50 uM by phase contrast microscopic method; type: functional, cell-based; conditions: Sus scrofa
LLC-PK1 [4] = test: Renoprotective activity in pig LLC-PK1 cells assessed as inhibition of cisplatin-induced cell death by measuring cell viability at 50 uM by flow cytometry; type: functional, cell-based; conditions: Sus scrofa
Sus scrofa [5] = species on record: Sus scrofa; test: Inhibition of cisplatin-induced MAPK p38 phosphorylation in pig LLC-PK1 cells at 10 to 50 uM after 24 hrs by Western blot method; type: cell-based
Sus scrofa [6] = species on record: Sus scrofa; test: Inhibition of cisplatin-induced MAPK JNK phosphorylation in pig LLC-PK1 cells at 10 to 50 uM after 24 hrs by Western blot method; type: cell-based
LLC-PK1 [7] = test: Renoprotective activity in pig LLC-PK1 cells assessed as inhibition of cisplatin-induced cleaved caspase-3 levels at 10 to 50 uM after 24 hrs by Western blot method; type: functional, cell-based; conditions: Sus scrofa

## C/C=C1/[C@@H](n2cc(-c3ccc(C)cc3)nn2)C[C@H]2[C@@H]3CCC4=CC(=O)CC[C@]4(C)[C@H]3CC[C@]12C
LLC-PK1 [1]
  inhibition: Active

## C/C=C1/[C@@H](n2cc(CCCC#N)nn2)C[C@H]2[C@@H]3CCC4=CC(=O)CC[C@]4(C)[C@H]3CC[C@]12C
LLC-PK1 [1]
  inhibition: inactive

## C/C=C1/[C@@H](n2cc(-c3ccc(F)cc3)nn2)C[C@H]2[C@@H]3CCC4=CC(=O)CC[C@]4(C)[C@H]3CC[C@]12C
LLC-PK1 [1]
  inhibition: Active

## C/C=C1/[C@@H](n2cc(CCCC)nn2)C[C@H]2[C@@H]3CCC4=CC(=O)CC[C@]4(C)[C@H]3CC[C@]12C
LLC-PK1 [1]
  inhibition: inactive

## C/C=C1/[C@@H](n2cc(CO)nn2)C[C@H]2[C@@H]3CCC4=CC(=O)CC[C@]4(C)[C@H]3CC[C@]12C
LLC-PK1 [2]
  Activity: >90%
LLC-PK1 [3]
  inhibition: Active
LLC-PK1 [4]
  inhibition: Active
Sus scrofa [5]
  inhibition: Active
Sus scrofa [6]
  inhibition: Active
LLC-PK1 [7]
  inhibition: Active

## C/C=C1/[C@@H](n2cc(-c3ccccc3)nn2)C[C@H]2[C@@H]3CCC4=CC(=O)CC[C@]4(C)[C@H]3CC[C@]12C
LLC-PK1 [1]
  inhibition: Active
